Patent US9302999B2, “Substituted triazoles as herbicides” (E. I. DU PONT DE NEMOURS AND COMPANY, priority 2012, dated 2016)

How the values were obtained:
Type in all cases: in vivo
[1] = tested on: radish, wild (wild radish, Raphanus raphanistrum); experiment: Test D pre-/postemergence: radish, wild
Description: (§1) Seeds of plant species selected from bluegrass (annual bluegrass, Poa annua), blackgrass (Alopecurus myosuroides), canarygrass (Phalaris minor), chickweed (common chickweed, Stellaria media), galium (catchweed bedstraw, Galium aparine), bromegrass, downy (downy bromegrass, Bromus tectorum), field poppy (Papaver rhoeas), field violet (Viola arvensis), foxtail, green (green foxtail, Setaria viridis), deadnettle (henbit deadnettle, Lamium amplexicaule), ryegrass, Italian (Italian ryegrass, Lolium multiflorum), kochia (Kochia scoparia), lambsquarters (Chenopodium album), oilseed rape (Brassica napus), pigweed (Amaranthus retroflexus), Russian thistle (Salsola iberica), chamomile (scentless chamomile, Matricaria inodora), speedwell (bird's-eye speedwell, Veronica persica), barley, spring (spring barley, Hordeum vulgare), wheat, spring (spring wheat, Triticum aestivum), buckwheat, wild (wild buckwheat, Polygonum convolvulus), mustard, wild (wild mustard, Sinapis arvensis), oat, wild (wild oat, Avena fatua), radish, wild (wild radish, Raphanus raphanistrum), windgrass (Apera spica-venti), barley, winter (winter barley, Hordeum vulgare), and wheat, winter (winter wheat, Triticum aestivum) were planted into a silt loam soil and treated preemergence with test chemicals formulated in a non-phytotoxic solvent mixture which included a surfactant. At the same time, these same crop and weed species were planted in pots containing the planting medium comprising spaghnum peat moss, vermiculite, wetting agent and starter nutrients and treated with postemergence applications of the test chemicals formulated in the same manner. Plants ranged in height from 2 to 18 cm (1- to 4-leaf stage).
(§2) Treated plants and controls were maintained in a controlled growth environment for 14 to 21 days after which time all species were compared to controls and visually evaluated. Plant response ratings, summarized in Table D, are based on a scale of 0 to 100 where 0 is no effect and 100 is complete control. A dash (-) response means no test result.

[2] = tested on: barley, winter (winter barley, Hordeum vulgare); experiment: Test D pre-/postemergence: barley, winter
Description: as §1, §2

[3] = tested on: deadnettle (henbit deadnettle, Lamium amplexicaule); experiment: Test D pre-/postemergence: deadnettle
Description: as §1, §2

[4] = tested on: blackgrass (Alopecurus myosuroides); experiment: Test D pre-/postemergence: blackgrass
Description: as §1, §2

[5] = tested on: canarygrass (Phalaris minor); experiment: Test D pre-/postemergence: canarygrass
Description: as §1, §2

[6] = Postemergence, 31 g ai/ha, scale 0 to 100 (0 no effect, 100 complete control)
[7] = Postemergence, 62 g ai/ha, scale 0 to 100 (0 no effect, 100 complete control)
[8] = Postemergence, 125 g ai/ha, scale 0 to 100, 0 no effect, 100 complete control
[9] = Postemergence, 250 g ai/ha, scale 0 to 100 (0 no effect, 100 complete control)
[10] = Preemergence, 62 g ai/ha, scale 0 to 100
[11] = Preemergence, 125 g ai/ha, scale 0 to 100
[12] = Preemergence, 250 g ai/ha, scale 0 to 100
[13] = Preemergence, 31 g ai/ha, scale 0 to 100, 0 no effect, 100 complete control
[14] = Postemergence, 16 g ai/ha, scale 0 to 100

FC(F)(F)COc1nn(-c2ccc(C(F)(F)F)cc2)nc1Cc1ccnc(C(F)(F)F)c1 [Compound 14, 4-[[5-(2,2,2-trifluoroethoxy)-2-[4-(trifluoromethyl)phenyl]-2H-1,2,3-triazol-4-yl]methyl]-2-(trifluoromethyl)pyridine]
Plant response rating: Radish, Wild [1, 6]: 70 | Plant response rating: Radish, Wild [1, 7]: 85 | Plant response rating: Radish, Wild [1, 8]: 100 | Plant response rating: Radish, Wild [1, 9]: 100 | Plant response rating, Radish, Wild [1, 10]: 40 | Plant response rating, Radish, Wild [1, 11]: 100 | Plant response rating, Radish, Wild [1, 12]: 100 | Plant response rating: Barley, Winter [2, 6]: 10 | Plant response rating: Barley, Winter [2, 7]: 25 | Plant response rating: Barley, Winter [2, 8]: 35 | Plant response rating: Barley, Winter [2, 9]: 40 | Plant response rating, Barley, Winter [2, 13]: 0 | Plant response rating, Barley, Winter [2, 10]: 0 | Plant response rating, Barley, Winter [2, 11]: 10 | Plant response rating, Barley, Winter [2, 12]: 35 | Plant response rating: Deadnettle [3, 6]: 25 | Plant response rating: Deadnettle [3, 7]: 40 | Plant response rating: Deadnettle [3, 8]: 100 | Plant response rating: Deadnettle [3, 9]: 100 | Plant response rating, Deadnettle [3, 13]: 60 | Plant response rating, Deadnettle [3, 10]: 70 | Plant response rating, Deadnettle [3, 11]: 100 | Plant response rating, Deadnettle [3, 12]: 100 | Plant response rating: Blackgrass [4, 6]: 25 | Plant response rating: Blackgrass [4, 7]: 35 | Plant response rating: Blackgrass [4, 8]: 70 | Plant response rating: Blackgrass [4, 9]: 85 | Plant response rating, Blackgrass [4, 13]: 0 | Plant response rating, Blackgrass [4, 10]: 0 | Plant response rating, Blackgrass [4, 11]: 10 | Plant response rating, Blackgrass [4, 12]: 60 | Plant response rating: Canarygrass [5, 6]: 25 | Plant response rating: Canarygrass [5, 7]: 40 | Plant response rating: Canarygrass [5, 8]: 55 | Plant response rating: Canarygrass [5, 9]: 80 | Plant response rating, Canarygrass [5, 13]: 10 | Plant response rating, Canarygrass [5, 10]: 25 | Plant response rating, Canarygrass [5, 11]: 90 | Plant response rating, Canarygrass [5, 12]: 98

COc1nn(-c2ccc(C(F)(F)F)cc2)nc1Cc1ccnc(C(F)(F)F)c1 [Compound 15, 4-[[5-methoxy-2-[4-(trifluoromethyl)phenyl]-2H-1,2,3-triazol-4-yl]methyl]-2-(trifluoromethyl)pyridine]
Plant response rating: Radish, Wild [1, 6]: 100 | Plant response rating: Radish, Wild [1, 7]: 100 | Plant response rating: Radish, Wild [1, 8]: 100 | Plant response rating: Radish, Wild [1, 9]: 100 | Plant response rating, Radish, Wild [1, 14]: 100 | Plant response rating, Radish, Wild [1, 13]: 0 | Plant response rating, Radish, Wild [1, 10]: 0 | Plant response rating, Radish, Wild [1, 11]: 100 | Plant response rating, Radish, Wild [1, 12]: 100 | Plant response rating: Barley, Winter [2, 6]: 10 | Plant response rating: Barley, Winter [2, 7]: 15 | Plant response rating: Barley, Winter [2, 8]: 20 | Plant response rating: Barley, Winter [2, 9]: 40 | Plant response rating, Barley, Winter [2, 14]: 10 | Plant response rating, Barley, Winter [2, 13]: 0 | Plant response rating, Barley, Winter [2, 10]: 5 | Plant response rating, Barley, Winter [2, 11]: 20 | Plant response rating, Barley, Winter [2, 12]: 30 | Plant response rating: Deadnettle [3, 6]: 75 | Plant response rating: Deadnettle [3, 7]: 98 | Plant response rating: Deadnettle [3, 8]: 100 | Plant response rating: Deadnettle [3, 9]: 100 | Plant response rating, Deadnettle [3, 14]: 50 | Plant response rating, Deadnettle [3, 13]: 10 | Plant response rating, Deadnettle [3, 10]: 40 | Plant response rating, Deadnettle [3, 11]: 95 | Plant response rating, Deadnettle [3, 12]: 100 | Plant response rating: Blackgrass [4, 6]: 15 | Plant response rating: Blackgrass [4, 7]: 30 | Plant response rating: Blackgrass [4, 8]: 50 | Plant response rating: Blackgrass [4, 9]: 85 | Plant response rating, Blackgrass [4, 14]: 15 | Plant response rating, Blackgrass [4, 13]: 0 | Plant response rating, Blackgrass [4, 10]: 25 | Plant response rating, Blackgrass [4, 11]: 80 | Plant response rating, Blackgrass [4, 12]: 90 | Plant response rating: Canarygrass [5, 6]: 35 | Plant response rating: Canarygrass [5, 7]: 40 | Plant response rating: Canarygrass [5, 8]: 50 | Plant response rating: Canarygrass [5, 9]: 80 | Plant response rating, Canarygrass [5, 14]: 25 | Plant response rating, Canarygrass [5, 13]: 25 | Plant response rating, Canarygrass [5, 10]: 80 | Plant response rating, Canarygrass [5, 11]: 90 | Plant response rating, Canarygrass [5, 12]: 100

Cc1nn(-c2ccc(C(F)(F)F)cn2)nc1Oc1ccnc(C(F)(F)F)c1 [Compound 23]
Plant response rating: Radish, Wild [1, 6]: 20 | Plant response rating: Radish, Wild [1, 7]: 40 | Plant response rating: Radish, Wild [1, 8]: 75 | Plant response rating: Radish, Wild [1, 9]: 100 | Plant response rating, Radish, Wild [1, 14]: 20 | Plant response rating: Barley, Winter [2, 6]: 0 | Plant response rating: Barley, Winter [2, 7]: 10 | Plant response rating: Barley, Winter [2, 8]: 10 | Plant response rating: Barley, Winter [2, 9]: 20 | Plant response rating, Barley, Winter [2, 14]: 0 | Plant response rating: Deadnettle [3, 6]: 30 | Plant response rating: Deadnettle [3, 7]: 50 | Plant response rating: Deadnettle [3, 8]: 60 | Plant response rating: Deadnettle [3, 9]: 90 | Plant response rating, Deadnettle [3, 14]: 20 | Plant response rating: Blackgrass [4, 6]: 10 | Plant response rating: Blackgrass [4, 7]: 10 | Plant response rating: Blackgrass [4, 8]: 20 | Plant response rating: Blackgrass [4, 9]: 30 | Plant response rating, Blackgrass [4, 14]: 5 | Plant response rating: Canarygrass [5, 6]: 15 | Plant response rating: Canarygrass [5, 7]: 20 | Plant response rating: Canarygrass [5, 8]: 25 | Plant response rating: Canarygrass [5, 9]: 30 | Plant response rating, Canarygrass [5, 14]: 10

Cc1nn(-c2ccc(C(F)(F)F)cn2)nc1Cc1cccc(C(F)(F)F)c1 [Compound 106]
Plant response rating: Radish, Wild [1, 6]: 100 | Plant response rating: Radish, Wild [1, 7]: 100 | Plant response rating: Radish, Wild [1, 8]: 100 | Plant response rating: Radish, Wild [1, 9]: 100 | Plant response rating, Radish, Wild [1, 14]: 100 | Plant response rating, Radish, Wild [1, 13]: 0 | Plant response rating, Radish, Wild [1, 10]: 30 | Plant response rating, Radish, Wild [1, 11]: 30 | Plant response rating, Radish, Wild [1, 12]: 30 | Plant response rating: Barley, Winter [2, 6]: 5 | Plant response rating: Barley, Winter [2, 7]: 5 | Plant response rating: Barley, Winter [2, 8]: 5 | Plant response rating: Barley, Winter [2, 9]: 10 | Plant response rating, Barley, Winter [2, 14]: 0 | Plant response rating, Barley, Winter [2, 13]: 0 | Plant response rating, Barley, Winter [2, 10]: 0 | Plant response rating, Barley, Winter [2, 11]: 0 | Plant response rating, Barley, Winter [2, 12]: 20 | Plant response rating: Deadnettle [3, 6]: 30 | Plant response rating: Deadnettle [3, 7]: 40 | Plant response rating: Deadnettle [3, 8]: 60 | Plant response rating: Deadnettle [3, 9]: 80 | Plant response rating, Deadnettle [3, 14]: 20 | Plant response rating, Deadnettle [3, 13]: 0 | Plant response rating, Deadnettle [3, 10]: 0 | Plant response rating, Deadnettle [3, 11]: 0 | Plant response rating, Deadnettle [3, 12]: 0 | Plant response rating: Blackgrass [4, 6]: 10 | Plant response rating: Blackgrass [4, 7]: 10 | Plant response rating: Blackgrass [4, 8]: 20 | Plant response rating: Blackgrass [4, 9]: 30 | Plant response rating, Blackgrass [4, 14]: 5 | Plant response rating, Blackgrass [4, 13]: 0 | Plant response rating, Blackgrass [4, 10]: 0 | Plant response rating, Blackgrass [4, 11]: 0 | Plant response rating, Blackgrass [4, 12]: 0 | Plant response rating: Canarygrass [5, 6]: 5 | Plant response rating: Canarygrass [5, 7]: 10 | Plant response rating: Canarygrass [5, 8]: 20 | Plant response rating: Canarygrass [5, 9]: 30 | Plant response rating, Canarygrass [5, 14]: 5 | Plant response rating, Canarygrass [5, 13]: 0 | Plant response rating, Canarygrass [5, 10]: 0 | Plant response rating, Canarygrass [5, 11]: 0 | Plant response rating, Canarygrass [5, 12]: 0
